Earlier results on one compound are cited in patent US10450317B2, “Notch pathway signaling inhibitor compounds” (Eli Lilly and Company, priority 2015, dated 2019).

In one data set the test system is auditory hair cells. To be noted: middle ear delivery, mice with acoustic trauma; cited from earlier work.
For data set [1] the following is noted: systemic administration; cited from earlier work.

Each structure is given as a SMILES string.

As for `C[C@H](NC(=O)[C@@H](O)c1cc(F)cc(F)c1)C(=O)N[C@@H]1C(=O)N(C)c2ccccc2-c2ccccc21` [LY411575], the “hearing recovery by regeneration of auditory hair cells” value in the data set with auditory hair cells is on record as “significant, measurable, hearing recovery”. In data set [1], the toxicity result is reported as “Dose limiting toxicity was shown”.
